Paper PMC3486876 (PLoS Neglected Tropical Diseases, 2012)
Values joined by “and” are separate entries in the source; they are usually repeats but may differ in a detail not shown here. Identical values can stand only once. Like-named read-outs stand apart in the source and are kept apart here. Marks after values point to notes of the source that are not given here.

Tests used:
[1] = Drug concentration in plasma and brain (HPLC) in Mdr1ab(−/−) mice; assay type: in vivo, mouse; conditions: 24 h post-treatment; for Brain concentration at LD50: determined graphically from Figure 3A; for Brain-to-plasma ratio (slope of brain vs plasma concentration): increasing doses
P-gp-deficient dogs = conditions: cited from earlier work
[2] = no reference given; cited from earlier work
humans = system: humans; parameters: method as in clinicaltrials.gov NCT00856362, NCT00300768, NCT00790998; conditions: approximately 1,700 people; ref clinicaltrials.gov NCT00856362, NCT00300768, NCT00790998; cited from earlier work
[3] = Drug concentration in plasma and brain (HPLC) in wild-type mice; assay type: in vivo, mouse; conditions: 24 h post-treatment; for Brain concentration at LD50: determined graphically from Figure 3B; for Brain-to-plasma ratio (slope of brain vs plasma concentration): increasing doses
Experimental: Mice were anesthetized 2 h or 24 h after administration with isoflurane and heparinized blood samples were collected from the orbital sinus vein. Immediately thereafter, mice were sacrificed by cervical dislocation and brains were rapidly removed. Blood samples were centrifuged at 1500 g for 10 min at 4°C and the plasma fraction was collected and stored at −20°C until analysis. The brains were washed in saline solution and frozen at −20°C until analysis.
ML concentrations were determined in plasma and brain by high performance liquid chromatography (HPLC) with fluorescence detection according to previously described and validated methods, [25]. In brief, plasma and tissues were homogenised in acetonitrile (1∶1 v/v or 1∶2 v/w, respectively). Samples were centrifuged at 2000 g and the supernatant applied to a Supelco C18 cartridge (Supelco Inc., Bellefonte, PA, USA) by using automated solid phase extraction (SPE). […] The eluate was evaporated and the dry extract was processed to obtain a fluorophore derivative by dissolving it in 1N-methylimidazole and trifluoroacetic anhydride solutions. Samples were injected into the HPLC system (PU980 pump, Jasko, Tokyo, Japan; 360 automatic injector, Kontron, Paris, France; RF-551 fluorescence detector, Shimadzu, Kyoto, Japan). For IVM and MOX a Supelcosil LC18 column (250×4.6 mm, 5 µm, Supelco, Bellefonte, PA, USA) was used with acetic acid (0.2% in water)∶methanol∶acetonitrile (4∶40∶56, v/v/v) as mobile phase.

[4] = Acute toxicity (14-day survival, LD50) after subcutaneous administration; conditions: mouse, in vivo, sc, Mdr1ab(−/−) mice, survival over 14 days, determined graphically
Experimental: (§1) For acute toxicity experiments, Mdr1ab(−/−) mice (2–8 per dose rate) were injected subcutaneously with drug solutions at dose rates ranging from 0.1–1.75 mg/kg bw (0.11–2.0 µmol/kg bw) for IVM and 0.2–8.2 mg/kg bw (0.31–12.9 µmol/kg bw) for MOX. […] Mice were euthanized when severe tremors or ataxia were noted.

wild-type mice = conditions: cited from earlier work
P-gp = system: P-gp; parameters: method as in PMID 17134887; conditions: cited from earlier work
Mdr1ab(−/−) mice = assay: Neurological symptoms after subcutaneous administration; assay type: in vivo, mouse
Experimental: as §1

[5] = molecular target: T1, rat α1β2γ2 GABA(A) receptor (Rattus norvegicus, UniProt P18508+P62813+P63138); assay: Two-electrode voltage-clamp of GABA(A) receptor expressed in Xenopus laevis oocytes; assay type: cell-based
T1 construct: expressed in transfected cells; host or cells: Xenopus laevis oocytes injected with cRNA (constructs a gift from Dr Erwin Sigel)
Experimental: Oocytes from X. laevis, injected with foreign cDNA of the receptor of choice, are a commonly used tool for studying the activity of plasma membrane receptors. […] Isolation of oocytes from the frogs, defolliculation, culturing of the oocytes and injection of cRNA were performed as described previously. Oocytes were injected with 46 nl of RNA solution, with RNA coding for α1, β2 and γ2 subunits at a ratio of 10∶10∶50 nM [30]. The injected oocytes were incubated in modified Barth's solution [90 mM NaCl, 3 mM KCl, 0.82 mM MgSO4, 0.41 mM CaCl2, 0.34 mM Ca(NO3)2, 100 U/ml penicillin, 100 µg/ml streptomycin and 100 µg/ml kanamycin, 5 mM HEPES pH 7.6] at 18°C for approximately 36 h before the measurements to ensure the expression of a functional receptor.
Electrophysiological experiments were performed by the two-electrode voltage-clamp method. Measurements were done in ND96 medium containing 96 mM NaCl, 2 mM KCl, 1 mM MgCl2, 1.8 mM CaCl2 and 5 mM HEPES, pH 7.5, at a holding potential of −80 mV. Currents were measured using a custom-made two-electrode voltage clamp amplifier in combination with an XY recorder (90% response time, 0.1 s). The intracellular electrodes were filled with 3 M KCl (resistance of 0.5–1.5 MΩ). […] The perfusion solution (6 ml/min) was applied through a glass capillary with an inner diameter of 1.35 mm. […] The modulatory compounds (IVM and MOX) were first dissolved in DMSO at 20 mM and then diluted in ND96 to the final concentration.
Concentration ranges used were: IVM: 0.5 nM–10 µM; MOX: 1 nM–5 µM.
A washout period of 5 min between each agonist application was introduced, allowing receptors to fully recover from desensitization. The perfusion system was cleaned, after application of MLs, between each experiment by washing with 10% DMSO in ND96 to avoid contamination. Three or four different batches of oocytes were used to collect data for each analysis.
All experiments were conducted at least in triplicate. Differences in ML tissue concentrations were analyzed by one-way analysis of variance (ANOVA) with a Tukey post-test and are expressed as mean ± standard deviation (S.D.). […] Half-maximal concentrations (EC50), slope factors (Hill coefficients, nH) and maximal potentiation values for ML-induced activation of current were obtained using the Hill equation. Statistical analysis was performed using unpaired t-tests with Welch's correction to allow for differences in variances (GraphPad Instat, San Diego, CA, USA). Differences were considered statistically significant when p<0.05.

[6] = potentiation of current evoked by 2 µM GABA (EC10)

T1 sequence (P62813 28-455): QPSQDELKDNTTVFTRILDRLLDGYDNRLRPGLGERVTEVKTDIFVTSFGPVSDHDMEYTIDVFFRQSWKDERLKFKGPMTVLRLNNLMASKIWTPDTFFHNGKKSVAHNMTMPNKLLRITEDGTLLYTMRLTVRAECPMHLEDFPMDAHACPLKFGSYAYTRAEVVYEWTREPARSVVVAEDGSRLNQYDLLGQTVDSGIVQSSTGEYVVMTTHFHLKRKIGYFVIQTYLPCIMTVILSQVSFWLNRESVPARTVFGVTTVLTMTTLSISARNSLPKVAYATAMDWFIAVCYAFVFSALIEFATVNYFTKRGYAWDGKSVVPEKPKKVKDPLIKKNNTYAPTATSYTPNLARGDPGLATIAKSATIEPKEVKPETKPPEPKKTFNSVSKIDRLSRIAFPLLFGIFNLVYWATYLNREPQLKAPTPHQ
T1 sequence (P63138 25-474 limits assumed): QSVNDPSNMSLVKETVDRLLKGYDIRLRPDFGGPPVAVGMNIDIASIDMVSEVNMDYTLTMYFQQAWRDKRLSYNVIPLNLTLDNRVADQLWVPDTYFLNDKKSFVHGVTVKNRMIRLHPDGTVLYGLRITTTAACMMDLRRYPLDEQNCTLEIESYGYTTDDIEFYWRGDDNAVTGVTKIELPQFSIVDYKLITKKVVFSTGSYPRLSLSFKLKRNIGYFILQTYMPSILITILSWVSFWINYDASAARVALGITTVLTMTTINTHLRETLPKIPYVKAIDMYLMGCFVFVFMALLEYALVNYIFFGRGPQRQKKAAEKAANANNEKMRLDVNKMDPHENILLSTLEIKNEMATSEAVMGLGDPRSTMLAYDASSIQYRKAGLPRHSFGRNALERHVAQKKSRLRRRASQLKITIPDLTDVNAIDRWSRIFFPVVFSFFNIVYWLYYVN
T1 sequence (P18508 39-466): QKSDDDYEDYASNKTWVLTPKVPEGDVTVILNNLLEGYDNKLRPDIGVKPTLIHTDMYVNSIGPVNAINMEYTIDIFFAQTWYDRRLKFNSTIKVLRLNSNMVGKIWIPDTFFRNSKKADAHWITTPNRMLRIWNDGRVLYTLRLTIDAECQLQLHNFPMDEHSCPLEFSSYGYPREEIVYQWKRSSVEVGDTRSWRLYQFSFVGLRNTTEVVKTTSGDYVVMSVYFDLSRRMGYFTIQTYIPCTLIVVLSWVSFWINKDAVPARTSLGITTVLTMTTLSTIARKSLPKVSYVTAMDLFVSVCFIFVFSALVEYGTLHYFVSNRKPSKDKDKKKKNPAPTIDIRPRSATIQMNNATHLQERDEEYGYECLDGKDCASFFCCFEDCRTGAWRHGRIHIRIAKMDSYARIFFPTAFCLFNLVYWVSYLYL

Structure (SMILES): CO/N=C1\C[C@]2(C[C@@H]3C[C@@H](C/C=C(\C)C[C@@H](C)/C=C/C=C4\CO[C@@H]5[C@H](O)C(C)=C[C@@H](C(=O)O3)[C@]45O)O2)O[C@H](/C(C)=C/C(C)C)[C@H]1C [Moxidectin]
- Brain concentration at LD50 [1]: 830 ^c pmol/g
- Brain concentration at LD50 ([1]; listed as MOX): 830 pmol/g
- Brain-to-plasma ratio (slope of brain vs plasma concentration) [1]: 2.6 (R^2 = 0.936) ^e ml/g
- Brain-to-plasma ratio (slope of brain vs plasma concentration) ([1]; listed as MOX): 2.6 mL/g
- Dose safely used (P-gp-deficient dogs; P-gp-deficient Collie dogs, spot-on application): up to 32.5 mg/kg
- Signs of toxicosis (P-gp-deficient dogs; P-gp-deficient dogs sensitive to IVM, 100 µg/kg daily for 7 days): did not produce signs of toxicosis
- Toxicological signs (P-gp-deficient dogs; dogs sensitive to 120 µg/kg oral IVM, similar molar dose rate, oral): did not produce any toxicological signs
- logP [2]: 6
- Serious adverse events (humans): without evidence of any serious adverse events
- Brain concentration at LD50 [3]: 740–1380 ^d pmol/g
- Brain concentration at LD50 ([3]; listed as MOX): 740 to 1380 pmol/g
- Brain-to-plasma ratio (slope of brain vs plasma concentration) [3]: 0.09 (R^2 = 0.984) ^e ml/g
- Brain-to-plasma ratio (slope of brain vs plasma concentration) ([3]; listed as MOX): 0.09 mL/g
- LD50 at 14 days [4]: 1.47 mg/kg and 2.3 µmol/kg
- LD50 (wild-type mice): 70–131 ^b µmol/kg
- LD50 (wild-type mice; oral administration, ref 20 (IVM), 21 (MOX)): 86 mg/kg
- Effectiveness in inhibiting transport activity by P-gp, fold less than IVM (P-gp): 10 fold
- Toxicity (Mdr1ab(−/−) mice; 0.46 µmol/kg SC (same dose rate as IVM)): did not show any toxicity
- Neurological symptoms observed (Mdr1ab(−/−) mice; 2 µmol/kg SC, 1 h post-treatment): Visually normal
- Neurological symptoms observed (Mdr1ab(−/−) mice; 2 µmol/kg SC, 2 h post-treatment (ditto marks to 4 h; transient), listed as MOX): rapid breathing was transiently observed
- Neurological symptoms observed (Mdr1ab(−/−) mice; 2 µmol/kg SC, 5 h post-treatment (ditto marks to 14 d)): Visually normal
- Neurological symptoms observed (Mdr1ab(−/−) mice; 2.6 µmol/kg SC, 1 h post-treatment (ditto marks to 3 h)): Visually normal
- Neurological symptoms observed (Mdr1ab(−/−) mice; 2.6 µmol/kg SC, 4 h post-treatment (ditto marks to 8 h)): Sleepiness
- Neurological symptoms observed (Mdr1ab(−/−) mice; 2.6 µmol/kg SC, 12 h post-treatment, mice euthanized): Ataxia ^c/Tremor ^d ^†
- Neurological symptoms observed (Mdr1ab(−/−) mice; 4 µmol/kg SC, 1 h post-treatment): Balance problems
- Neurological symptoms observed (Mdr1ab(−/−) mice; 4 µmol/kg SC, 2 h post-treatment (ditto marks to 4 h)): Sleepiness
- Neurological symptoms observed (Mdr1ab(−/−) mice; 4 µmol/kg SC, 5 h post-treatment, mice euthanized): Ataxia ^c/Coma ^†
- Start of neurotoxic signs (lethargy, tremors and/or ataxia) (Mdr1ab(−/−) mice; dose rates close to the respective LD50 (0.46 IVM, 2.3 MOX µmol/kg)): 4 h
- EC50 [5]: 11.8 ± 9.2 nM
- Concentration to reach Emax [5, 6]: 0.66 ^c µM
- Hill slope [5, 6]: 0.34±0.56
- Hill slope ([5]; potentiation of current evoked by 2 µM GABA (EC10), listed as MOX): 0.34±0.56 and 0.34
- Emax ([5]; read-out: Emax (maximum potentiation relative to GABA alone)): 257 ± 40.6%
